The results in this text go back to patent US20190369111A1, “MOLECULAR KINETICS EVALUATION METHOD AND SCREENING METHOD” (Tokyo University of Science Foundation, priority 2016, published 2019).

In this assay the target is T1, MDM2 protein (Homo sapiens, UniProt Q00987).
T1 construct: an endogenous wild-type p53 protein and MDM2 protein in HCT116 cells (human large intestine cancer cells); endogenous in cells; host or cells: HCT116 cells
The assay is described as follows: Degradation of endogenous MDM2 protein in HCT116 cells, Western blot analysis. The note with it: 48 hours after addition. It is filed as cell-based. The method, then: HCT116 cells were seeded in a 24-well plate at a cell density of 8×10^4 cells/well, and then cultured under conditions of 37° C. and 5 vol % CO2 for 16 hours.
After 16 hours from cell seeding, TIBC-CANDDY_MLN or TIBC was added to HCT116 cells as follows. As a medium, a serum-free medium (37° C.) in which 1 mass % L-glutamine solution (Sigma-Aldrich) was added to D-MEM (high D-glucose, phenol red, sodium pyruvate (Wako Pure Chemical Industries, Ltd.)) was used. It is noted that the L-glutamine solution was added immediately before use. A DMSO solution containing TIBC-CANDDY_MLN or TIBC was mixed with the medium so that the concentration of DMSO was 1 vol %, and added to each well at 500 μL/well, and cultured under conditions of 37° C. and 5 vol % CO2. As a control, DMSO was used.
The medium was removed 48 hours after addition of TIBC-CANDDY_MLN or TIBC, and then PBS was added to wash the cells. […]
After electrophoresis, proteins were transferred to a PVDF membrane (Immobion™-P, Millipore) under conditions of 100 V and 2 hours using a tank-type blotting device and a transfer buffer (25 mM Tris-HCl, 195 mM glycine, 0.01% SDS, 15% methanol). […] Subsequently, the membrane was treated with a chemiluminescence reagent Immobilon™ Western (Millipore), and then chemiluminescence was detected using a lumino image analyzer LAS-3000 (FUJIFILM Corporation).
(In general: A western blot detects proteins with antibodies after separation by electrophoresis.)

T1 sequence (Q00987 whole entry): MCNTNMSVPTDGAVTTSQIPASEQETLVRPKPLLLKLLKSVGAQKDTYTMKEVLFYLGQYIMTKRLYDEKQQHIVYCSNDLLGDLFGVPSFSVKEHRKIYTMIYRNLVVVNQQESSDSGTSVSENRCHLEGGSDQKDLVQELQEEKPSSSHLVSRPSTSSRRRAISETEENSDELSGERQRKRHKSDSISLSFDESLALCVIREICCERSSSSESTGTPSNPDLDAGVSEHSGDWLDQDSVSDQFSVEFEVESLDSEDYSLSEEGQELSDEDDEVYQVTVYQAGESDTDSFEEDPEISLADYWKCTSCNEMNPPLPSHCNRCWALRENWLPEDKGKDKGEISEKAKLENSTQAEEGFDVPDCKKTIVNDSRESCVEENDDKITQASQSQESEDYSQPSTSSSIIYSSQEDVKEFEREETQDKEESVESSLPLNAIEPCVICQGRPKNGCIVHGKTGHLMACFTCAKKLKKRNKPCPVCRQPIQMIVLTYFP

As to `CC(C)C[C@H](NC(=O)CNC(=O)c1cc(Cl)ccc1Cl)C(=O)NCCCCCCC(=O)Nc1ccc(C(=O)/C=C/c2ccc(I)cc2)cc1` [TIBC-CANDDY_MLN], the “amount of endogenous MDM2 protein” value is listed as “reduced”.
